Like-named read-outs stand apart in the source and are kept apart here.
Key:
A549 cells [1] = experiment: Cytotoxicity (cell viability); assay type: cell-based; conditions: A549 (EGFR +, MET +), Table 10
Procedure: (§1) Curve-shift assays were conducted as follows: The cell number and viability was determined using ViCell™-XR (Beckman Coulter) and seeded in opague 96-well plate (10k viable cells/well). After seeding, the plate was incubated (37° C., 5% C02) in a humid chamber overnight. Compounds were diluted in the appropriate medium, added to the cells and the plate was incubated (37° C., 5% CO2, 6 d) in a humid chamber. After 30 min equilibration at room temperature, CellTiter-Glo reagent (Promega) was added. After the plate was shaken (3 min, 550 rpm, rt) it was incubated (10 min, rt) and luminescence was read on a synergy 4 plate reader (BioTek). Evaluation was performed using GraphPad Prism version 6.05. Therefor luminescence values were normalized to luminescence values of non-treated cells and dose-response was fitted with 4-point logistic fit.
(§2) Dose-matrix combination assays were performed as described above, but performed in opague 384-well plates (2k viable cells/well). Compounds were added using Tecan D300e liquid. Protein solutions were supplemented with 0.3% Tween-20 (final) and diluted to 1 μM. All wells were normalized to the maximum amount of DMSO (maximum 0.4%) or Tween-20 added. Read out of luminescence was performed on Envision 2104 Multilabel Reader (Perkin Elmer) and data were evaluated using Genedata Screener® version 14.0.6-Standard (Genedata AG). Luminescence values were normalized to luminescence of non-treated cells and dose-response was fitted using Smart Fit. Synergy scores were calculated using LOEWE synergy model.

MCF7 cells = experiment: Cytotoxicity (cell viability); assay type: cell-based; conditions: MCF7 (EGFR −, MET −), Table 10
Procedure: as §1, §2

A431 cells = experiment: Cytotoxicity (cell viability); assay type: cell-based; conditions: A431 (EGFR ++, MET +), Table 10
Procedure: as §1, §2

MDA-MB-453 cells [2] = experiment: Cytotoxicity (cell viability, CellTiter-Glo, 6 d); assay type: cell-based; conditions: MDA-MB-453, agent alone, 384-well format (footnote a); read-out: IC50
Procedure: as §2, with “Read out of luminescence was performed on Envision 2104 Multilabel Reader (Perkin Elmer) and data were evaluated using Genedata Screener® version 14.0.6-Standard (Genedata AG).” left out

A549 cells [3] = experiment: Dose-matrix combination assay (synergy score, Loewe model); assay type: cell-based; conditions: combination with AZD6738; A549 (EGFR-positive), 6 d
Procedure: as §2
(§3) The screening of synergistic drug combinations can be accomplished by performing a dose-matrix assay. Therefore, two drugs are serial diluted and mixed at every dose level, yielding a dose-matrix. The drug combination can be additive if the effects of the combination are identical to the added effects of the single agents. However, the effects of the combination might also be stronger than the activity of the single agents. This scenario is termed synergy, whereas weaker combination effects compared to the single agents are termed antagonism. A dose-matrix assay is depicted schematically in FIG. 2 which illustrates the outcomes of a dose-matrix assay: additivity, antagonism and synergy.

HCC-1954 cells [4] = experiment: as above; assay type: cell-based
Procedure: as §2, with “Read out of luminescence was performed on Envision 2104 Multilabel Reader (Perkin Elmer) and data were evaluated using Genedata Screener® version 14.0.6-Standard (Genedata AG).” left out
as §3
(§4) The screening was conducted by serial diluting the duocarmycin derivative DUBA (10) and the DDR inhibitors. […] DUBA was combined in a dose-matrix assay with hycanthone. The cell viability was measured after 6 d of treatment using the CellTiter-Glo assay kit. The signals of the cell viability assay were normalized to untreated cells and fitted. […] By subtracting the modeled data from the fitted data, an excess matrix was generated. The excess matrix can be considered as a visualization of the differences between model and actual data which also highlights spots of either high synergy or antagonism. The quantification of the combination effects, however, was performed by calculating synergy scores. […] Besides synergy score, the potency of the drugs in monotherapy was obtained from these experiments. […] The potency was obtained from this dose-response curve.
(§5) The scattering of S was determined in a sham control experiment to define a cutoff for classifying a combination as truly synergistic or antagonistic. Thus seven different compounds were combined with itself on four different cell lines and the three-σ confidence interval was calculated around the mean of the measurement. […] For the sake of convenience, the cutoff was set to a value of ±1.
(§6) Synergy scores (S) were obtained from the combination experiments that indicated additivity […] if model and actual response were equal. […] The magnitude of the score determined the extent of the combination effects.

MDA-MB-468 cells [5] = experiment: as above; assay type: cell-based
Procedure: as §2, with “Read out of luminescence was performed on Envision 2104 Multilabel Reader (Perkin Elmer) and data were evaluated using Genedata Screener® version 14.0.6-Standard (Genedata AG).” left out
as §3, §4, §5, §6

[6] = tested on: HCC-1954 cells treated with ATR, CHK1 or non-targeting siRNA; experiment: Cytotoxicity of duocarmycins on siRNA knock-down cells; assay type: cell-based; conditions: 6 d
Procedure: 0.7*10^6 viable cells were seeded in a T25 flask, 5 mL of medium were added and the cells were incubated at 37° C. and 5% C02 overnight. The transfection was carried out as follows: 2.5 μL Lipofectamine RNAiMAX were diluted with 247.5 μL OptiMEM and a 0.3 μM siRNA (ATR, CHK1 or non-targeting siRNA) solution was prepared in OptiMEM to yield 250 μL final volume. The solutions were mixed and incubated for 20 min at room temperature, followed by the addition of 500 μL cell culture medium. The cell culture medium was removed from the cells, washed with PBS (3×) and the transfection mix was added to the cells. After 4 h incubation at 37° C. and 5% CO2, the transfection mix was removed in vacuo. The cells were washed with medium (3×), 5 mL medium were added and the cells were incubated for 60 h at 37° C. and 5% CO2. Then cells were detached, and seeded into 384-well plates. Then a cytotoxicity assay was performed as described before, but with one compound only
Therefore, HCC-1954 cells were seeded into T25 flasks and left to adhere overnight. Then the cells were washed with PBS, and subsequently ATR, CHK1 and non-targeting siRNA were added. The cells were incubated for 4 h, washed with medium and incubated for 3 d. Cells were detached and seeded into 384-well plates. They were treated with duocarmycins for 6 d. Cell viability was determined via CellTiter-Glo assay kit, and data were evaluated using GraphPad Prism. The knock-down efficiency was evaluated using quantitative PCR.

MDA-MB-468 cells [7] = experiment: Cytotoxicity (cell viability, CellTiter-Glo, 6 d); assay type: cell-based; conditions: read-out: IC50
JIMT-1 cells [8] = experiment: Cytotoxicity (cell viability, CellTiter-Glo, 6 d); assay type: cell-based; conditions: JIMT-1, agent alone, 384-well format (footnote a)
Procedure: Evaluation was performed using GraphPad Prism version 6.05.
as §2

NCI-N87 xenografts = experiment: Xenograft experiment, therapeutic efficacy; conditions: single agent: αHER2-6 1.0 mg/kg i.v. single dose; ATRi 50 mg/kg per oral once daily 14 d
Procedure: Female H2d Rag2 mice, 6-8 weeks old, were obtained from Taconic Biosciences, LLC. A xenograft was established by harvesting NCI-N87 cells from cell culture, mixing the cells 1:1 with Matrigel and injecting 2.5×10^6 cells subcutaneously into the flank of the mice. The tumor volume was assessed twice weekly by length measurements in two dimensions using calipers. The volume was calculated following eq. 3 where the length L is the longest tumor length and W is the shortest tumor length.
After an initial tumor growth phase, mice were randomized and assigned to treatment groups comprising 10 animals. The initial tumor volume amounted to approximately 100 mm^3 when treatment started. Vehicle treated mice obtained a solution of 0.5% Methocel, 0.25% Tween-20 in water. […] Mice were weighted twice weekly to assess the body-weight during the treatment period. The criteria to terminate the study for single animals were skin ulcerations, tumor length exceeding 15 mm or tumor exceeding 10% of the body weight. In addition, body weight loss was a criterium for termination if body weight loss exceeded 20% accompanied with a haggard appearance, body weight loss exceeded 20% on three successive days or if body weight loss exceeded 25% of the adjusted body weight.

MDA-MB-453 cells [9] = experiment: Dose-matrix combination assay (synergy score, Loewe model); assay type: cell-based; conditions: MDA-MB-453
Procedure: as §2, §3

NCI-N87 cells = experiment: as above; assay type: cell-based; conditions: NCI-N87
Procedure: as §2, §3

JIMT-1 cells [10] = experiment: MNED curve-shift assay; assay type: cell-based
From the text: (§7) Therefore a curve-shift assay system was established. In a first step, a dose-response curve (DRC) is obtained by treating a certain cell line with an inhibitor. The maximum non-efficacious dose (MNED) can be derived from this DRC. MNED is the highest dose, that can be added to a certain cell line without affecting the viability. The activity of the ADC is confirmed in a separate experiment. Finally, a combination experiment can be conducted. Therefore, the ADC and ADC plus inhibitor at MNED are added to the cells. The inhibitor is tested in parallel at MNED as a control. Due to the application of inhibitor at MNED, no reduction in cell viability caused by the inhibitor is expected. Three outcomes are possible: 1) The combination of ADC plus inhibitor is equipotent as the ADC only. […] Such a result would be interpreted as depotentiation. […] In this case, the potency of the ADC is potentiated.
(§8) Potentiation effects are expressed as dose-reduction indices (DRI), which can be calculated by dividing the IC50-value of ADC by the IC50-value of ADC plus inhibitor according to eq. 1
as §1
(§9) The determination of dose-reduction indices (DRI) in a maximum non-efficacious dose (MNED) curve-shift assay is a 3-step process as depicted exemplarily in FIG. 13. The cytotoxicity of the ADC is confirmed in a cell viability assay in an initial step. […] In the second step. the MNED of the ATRi was determined. […] In order to obtain a full […] for the combination, the starting concentration of the ADC was lowered compared to the experiment in step 1.

SK-OV-3 cells = experiment: MNED curve-shift assay; assay type: cell-based
From the text: as §7, §8, §1, §9

HCC-1954 cells [11] = experiment: MNED curve-shift assay; assay type: cell-based; conditions: HCC-1954
From the text: as §7, §8, §1, §9

SK-BR-3 cells = experiment: MNED curve-shift assay; assay type: cell-based
From the text: as §7, §8, §1, §9

MDA-MB-453 cells [12] = experiment: MNED curve-shift assay; assay type: cell-based
From the text: as §7, §8, §1, §9

Calu-3 cells = experiment: MNED curve-shift assay; assay type: cell-based
From the text: as §7, §8, §1, §9

MDA-MB-468 cells [13] = experiment: MNED curve-shift assay; assay type: cell-based
From the text: as §7, §8, §1, §9

MDA-MB-361 cells = experiment: MNED curve-shift assay; assay type: cell-based
From the text: as §7, §8, §1, §9

BT-474 cells = experiment: MNED curve-shift assay; assay type: cell-based
From the text: as §7, §8, §1, §9

[14] = Xenograft experiment, tolerability (body weight); design: species or system H2d Rag2 mice; conditions: mouse, in vivo
Procedure: The tolerability of the anti-cancer treatment was assessed considering the overall condition of the animal as well as body-weight changes of the mice (FIG. 22).

CN(C)CCOc1ccc2[nH]c(C(=O)N3C[C@@H](CCl)c4c3cc(O)c3ccccc43)cc2c1 [compound 38]
IC50 (A549 cells [1]): 0.1 ± 0.1 nM | IC50 (MCF7 cells): 0.164 ± 0.004 nM | IC50 (A431 cells): 0.055 ± 0.005 nM | IC50 (MDA-MB-453 cells [2]): 0.14 nM | Synergy score S (A549 cells [3]): 2.0±1.1 | Synergy score S (HCC-1954 cells [4]; combination with AZD6738, HCC-1954, 6 d): 5.6 ± 1.7 5.1 (4.8, 5.3) | Synergy score S (HCC-1954 cells [4]; combination with AZD6738, HCC-1954, 6 d, listed as DDM): 5.6+1.7 | Synergy score S (HCC-1954 cells [4]; combination with AZD6738, HCC-1954, 6 d, listed as DDM (38)): 5.6±1.7 | Synergy score S (MDA-MB-468 cells [5]; combination with AZD6738, MDA-MB-468 (EGFR-positive), 6 d): 6.0±1.0 | IC50 ([6]; ATR knock-down HCC-1954 cells): 0.014 nM | IC50 ([6]; CHK1 knock-down HCC-1954 cells): 0.133 nM | IC50 (MDA-MB-468 cells [7]; MDA-MB-468 (EGFR +++, MET +), Table 10): 0.02 ± 0.01 nM | IC50 (MDA-MB-468 cells [7]; MDA-MB-468, agent alone, 384-well format (footnote a)): 0.02 ± 0.01 nM | IC50 (JIMT-1 cells [8]): 0.14 nM

C[C@@H]1COCCN1c1cc(C2(S(C)(=N)=O)CC2)nc(-c2ccnc3[nH]ccc23)n1 (stereo partly drawn) [AZD6738, 4-{4-[(3R)-3-methylmorpholin-4-yl]-6-[1-(S-methylsulfonimidoyl)cyclopropyl]pyrimidin-2-yl}-1H-pyrrolo[2,3-b]pyridine]
tumor response (tumor volume) (NCI-N87 xenografts): not statistically different from the vehicle-treated group | Synergy score S (MDA-MB-453 cells [9]; combination with ADC αHER2-2): 9.1±2.1 | Synergy score S (MDA-MB-453 cells [9]; combination with ADC αHER2-6): 9.5±0.9 | Synergy score S (NCI-N87 cells; combination with ADC αHER2-2): 3.7±0.7 | Synergy score S (NCI-N87 cells; combination with ADC αHER2-6): 3.0±0.05 | Synergy score S (HCC-1954 cells [4]; combination with DUBA, HCC-1954, 6 d, S ± SD, cutoff ±1): 6.9±0.7 | Synergy score S (HCC-1954 cells [4]; combination with DUBA, cell line not given (screen on HCC-1954 or MDA-MB-468)): 7.6 | additional cancer cells killed versus additive (Loewe) prediction (HCC-1954 cells [4]; combination with DUBA, hotspot 160 to 630 nM AZD6738 and 0.16 to […] DUBA): up to 69% | Synergy score S (MDA-MB-468 cells [5]; combination with DUBA, MDA-MB-468, 6 d, S ± SD, cutoff ±1): 5.7±1.0 | MNED (maximum non-efficacious dose) (JIMT-1 cells [10]): 80 nM | MNED (maximum non-efficacious dose) (SK-OV-3 cells): 150 nM | MNED (maximum non-efficacious dose) (HCC-1954 cells [11]): 250 nM | MNED (maximum non-efficacious dose) (SK-BR-3 cells): 150 nM | MNED (maximum non-efficacious dose) (MDA-MB-453 cells [12]): 111 nM | MNED (maximum non-efficacious dose) (Calu-3 cells): 400 nM | MNED (maximum non-efficacious dose) (MDA-MB-468 cells [13]): 300 nM | MNED (maximum non-efficacious dose) (MDA-MB-361 cells): 111 nM | MNED (maximum non-efficacious dose) (BT-474 cells): 1000 nM | tolerability (conclusion) [14]: well tolerated
